Measurements taken from patent US11008620B2, “Methods for treating cancer resistant to ErbB therapeutics” (Dana-Farber Cancer Institute, Inc., priority 2007, dated 2021).

What was measured:
HCC827 GR cells [1] = assay: MTS survival assay, gefitinib-resistant HCC827 GR cells; details: HCC827 GR cell lines / GR5; single drugs or combination
Protocol: This assay, a colorimetric method for determining the number of viable cells, is based on the bioreduction of 3-(4,5-dimethylthiazol-2-yl)-5-(3-carboxymethoxyphenyl)-2-(4-sulfophenyl)-2H-tetrazolium (MTS) by cells to a formazan product that is soluble in cell culture medium, can be detected spectrophotometrically and was performed according to previously established methods (3, 31, 10).
All experimental points were set up in six to twelve wells and all experiments were repeated at least three times. […] The curves were fitted using a non-linear regression model with a sigmoidal dose response.

HCC827 GR cells [2] = assay: Western blot of EGFR/ERBB3/PI3K/Akt signaling in HCC827 GR cells; assay type: cell-based; details: 1 μM each drug, 6 hours (FIG. 2B)
[3] = system: ERBB3 and Gab1 association with p85 in HCC827 GR cells; assay: anti-p85 immunoprecipitation in HCC827 GR cells; assay type: cell-based; details: 1 μM each drug, 6 hours (FIG. 2C)
[4] = system: EGFR mutant HCC827 cells and ERBB2 amplified BT474 cells; assay: p85 immunoprecipitation and Western blot in control cell lines HCC827 and BT474; assay type: cell-based; details: 1 μM, 6 hours (FIG. 3A)
[5] = system: H1993 NSCLC cells, SNU638 and MKN45 gastric cancer cells; assay: p85 immunoprecipitation and Western blot in MET amplified cell lines; details: 1 μM, 6 hours (FIG. 3A)
Protocol: Lysates were immunoprecipitated with anti-p85 antibodies and the immunoprecipitates were probed with anti-phospho-tyrosine, anti-ERBB-3 and anti-p85 antibodies (* indicates ERBB3 on the PTyr blot). In parallel, the lysates were analyzed by Western blotting and probed with the indicated antibodies.
Cells grown under the previously specified conditions were lysed in the following lysis buffer: 20 mM Tris, pH 7.4/150 mM NaCl/1% Nonidet P-40/10% glycerol/1 mM EDTA/1 mM EGTA/5 mM sodium pyrophosphate/50 mM NaF/10 nM (3-glycerophosphate/1 mM sodium vanadate/0.5 mM DTT/4 μg/ml leupeptin/4 μg/ml pepstatin/4 μg/ml apoprotein/1 mM PMSF. After cell lysis, lysates were centrifuged at 16,000×g for 5 min at 4° C. The supernatant was used for subsequent procedures. Western blot analyses were conducted after separation by SDS/PAGE electrophoresis and transfer to nitrocellulose membranes. Immunoblotting was performed according to the antibody manufacturers' recommendations. Antibody binding was detected using an enhanced chemiluminescence system (New England Nuclear Life Science Products Inc.).
Anti-ErbB-3 antibody was obtained from Lab Vision. […] The total Met (C-28) antibody was purchased from Santa Cruz Biotechnology (Santa Cruz, Calif.).

[6] = system: CHO cells co-expressing MET and ERBB3; details: PHA-665,752 1 μM
Protocol: Lysates were immunoprecipitated with anti-p85 antibodies and the immunoprecipitates were probed with anti-phospho-tyrosine, anti-ERBB-3 and anti-p85 antibodies (* indicates ERBB3 on the PTyr blot). In parallel, the lysates were analyzed by Western blotting and probed with the indicated antibodies. […] Lentiviral shRNA constructs containing a scrambled (SC) sequence, ERBB3 specific sequence, a control sequence (CTRL) or GFP were infected into SNU638 cells (Methods). Seventy-two hours following infection, the cells were lysed and probed with indicated antibodies. […] C. […] Growth of SNU-638 cells was assayed by an MTS assay 5 days following infection of shRNA constructs in B. Growth is normalized to the SC shRNA. […] The resulting proteins were lysed and probed with the indicated antibodies. […] The resulting lysates were probed with either ERBB3 or MET.

HCC827 cells [7] = assay: Western blot of AKT phosphorylation in HCC827 treated with gefitinib and HGF; assay type: cell-based; details: gefitinib alone or with HGF, 6 hours (FIG. 10 top right)
HCC827 cells [8] = assay: crystal violet staining of viable HCC827 cells, gefitinib and HGF; assay type: cell-based; details: 10 days, gefitinib 1 uM, HGF 50, 10 or 2 ng/ml (FIG. 10 bottom)
Protocol: […] cells were seeded in a 10 cm petri dish and treated with the indicated conditions for 10 days. Gefitnib was used at 1 uM, and HGF was used at 50, 10, or 2 ng/ml. The plates were then stained with crystal violet to visualize viable cells.

HCC827 cells [9] = assay: MTS survival assay of HCC827 cells with HGF in the presence of gefitinib; assay type: cell-based; details: 50 ng/ml of HGF (FIG. 10 top left)
Source text: MET activity was induced by treating HCC827 cells with its ligand, HGF (hepatocyte growth factor).

Row | Compound | growth of HCC827 GR cells under drug (MTS) (HCC827 GR cells [1]) | ERBB3 and Akt phosphorylation (HCC827 GR cells [2]) | ERBB3 and Akt phosphorylation (HCC827 GR cells [2]; listed as PHA-665752) | co-precipitation of ERBB3 and Gab1 with p85 [3] | PI3K signaling [4] | ERBB3 and Akt phosphorylation [5] | ERBB3 association with p85 [5] | ERBB3 phosphorylation ([6]; CHO co-expressing MET and ERBB3, gefitinib 3 mM (so in the source), lapatinib 3 μM, PP2 10 μM, 6 hours (FIG. 3D)) | p85 co-precipitation with ERBB3 ([6]; CHO transfected with MET and ERBB3, gefitinib 3 μM, lapatinib 3 μM (FIG. 3E)) | AKT phosphorylation (HCC827 cells [7]) | viable cells (crystal violet) (HCC827 cells [8]) | survival in the presence of gefitinib (MTS) (HCC827 cells [9])
1 | CC#CC(=O)Nc1ccc2ncnc(Nc3cccc(Br)c3)c2c1 [CL-387,785] | did not suppress the growth | – | – | – | – | – | – | – | – | – | – | –
2 | Cc1[nH]c(/C=C2\C(=O)Nc3ccc(S(=O)(=O)Cc4c(Cl)cccc4Cl)cc32)c(C)c1C(=O)N1CCC[C@@H]1CN1CCCC1 [PHA-665,752] | resistant | minimal effect on P-Akt levels | no significant effect on p-ERBB3 or p-AKT | blocks Gab-1 association with p85 | has no effect on PI3K signaling | only inhibited | disrupted | blocked | inhibited | – | – | –
3 | HGF: hepatocyte growth factor, ligand of MET | – | – | – | – | – | – | – | – | – | at least partially reversed | increases with increased concentrations | markedly improved survival
